Results as given in patent US5380759A, “Methyl N-[6-(3,4,5-trimethoxybenzloxy)imidazo[1,2-b]pyridazin-2-zyl]carbamate used to treat leukemia” (priority 1987, dated 1995).

What was measured:
[1] = tested on: P388/VCR; test: In vivo activity against drug resistant tumour P388/VCR; design: species or system mouse; details: optimum dose 1.5 mg/kg
Protocol: (§1) CD2-F1 mice, of the same sex, weighing within a 3 gram range surrounding 20 g, are used for this test. Control and test animals are injected intraperitoneally with a suspension of 10^6 viable P388/O tumour cells on day 0. In each test several dose levels which bracket the LD20 for the compound are evaluated; each dose level group contains 6 animals. The test compounds are prepared either in physiologic saline containing 0.05% Tween 80 or distilled water containing 5% dextrose and are administered intraperitoneally on days 1,5 and 9 relative to tumour implant. Doses are on a mg/kg basis according to individual animals' body weights. The day of death for each animal is recorded and the median day of death identified for each group. The difference between the median survival time for treated and control groups is expressed as a percentage increase in life span (% ILS).
(§2) E. Activity Against Drug-Resistant Tumours
(§3) Using a similar procedure to the Lymphocytic Leukaemia P388/O test, the compound of Example 1 was evaluated against P388/O tumours which had been made resistant to the following standard, clinically used anti-tumour agents: […]

[2] = tested on: microtubule function; details: cited from earlier work
[3] = tested on: P388/5FU; test: In vivo activity against drug resistant tumour P388/5FU; design: species or system mouse; details: optimum dose 20.0 mg/kg
Protocol: as §1, §2, §3

[4] = tested on: P388/CPA; test: In vivo activity against drug resistant tumour P388/CPA; design: species or system mouse; details: optimum dose 265.0 mg/kg

CC[C@]1(O)C[C@H]2CN(CCc3c([nH]c4ccccc34)[C@@](C(=O)OC)(c3cc4c(cc3OC)N(C=O)[C@H]3[C@@](O)(C(=O)OC)[C@H](OC(C)=O)[C@]5(CC)C=CCN6CC[C@]43[C@@H]65)C2)C1 [VCR, Vincristine, reference compound]
60 Day Survivors [1]: 0/6 | % ILS [1]: +36% | microtubule inhibitory activity [2]: inhibitor of microtubule function

O=c1[nH]cc(F)c(=O)[nH]1 [Example 5FU, 5-fluorouracil, reference compound]
60 Day Survivors [3]: 0/6 | % ILS [3]: +71%

O=P1(N(CCCl)CCCl)NCCCO1 (stereo not shown) [CPA, cylophosphamide, reference compound]
60 Day Survivors [4]: 0/6 | % ILS [4]: +55%
